Data: patent US11738007B2, “Treatment of glaucoma using endothelin receptor antagonists” (Perfuse Therapeutics, Inc., priority 2019, dated 2023)
“And” between values parts separate entries of the source, which are not always exact repeats. Identical values can stand only once. Like-named read-outs stand apart in the source and are kept apart here.

Tests used:
ETA receptor = biological target: T1, ETA receptor (Homo sapiens, UniProt P25101); assay: Functional potency for ETA receptor; assay type: biochemical; settings: rating in words
T1 sequence (P25101 21-427): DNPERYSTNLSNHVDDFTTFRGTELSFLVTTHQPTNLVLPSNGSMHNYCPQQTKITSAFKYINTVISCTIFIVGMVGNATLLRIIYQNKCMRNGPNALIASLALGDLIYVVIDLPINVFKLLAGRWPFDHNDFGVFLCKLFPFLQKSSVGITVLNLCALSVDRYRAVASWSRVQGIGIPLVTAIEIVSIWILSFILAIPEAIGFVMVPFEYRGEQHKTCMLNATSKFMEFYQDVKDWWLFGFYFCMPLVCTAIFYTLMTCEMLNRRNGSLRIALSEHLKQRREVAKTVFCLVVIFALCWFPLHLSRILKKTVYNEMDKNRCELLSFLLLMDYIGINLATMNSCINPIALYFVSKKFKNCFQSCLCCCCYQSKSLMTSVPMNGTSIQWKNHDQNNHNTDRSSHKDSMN
Source text: (§1) In the above table, the physicochemical data, e.g., solubility, were obtained following standard protocols known in the field (see, e.g., Reis et al., Mini Rev Med Chem., 2010, 10(11):1071-6; Avdeef et al., Expert Opin Drug Metab Toxicol., 2005, 1(2):325-42; Bharate et al., Comb Chem High Throughput Screen., 2016, 19(6):461-9; and Jain et al., J Pharm Biomed Anal., 2013, 86:11-35); and the biochemical data, i.e., potency for ETA/ETB, were obtained following the protocols known in the field (see, e.g., Kirkby et al., Br J Pharmacol., 2008, 153(6):1105-19; and Maguire et al., Br J Pharmacol., 2014, 171(24):5555-72).

ETB receptor = biological target: T2, ETB receptor (Homo sapiens, UniProt P24530); assay: Functional potency for ETB receptor; assay type: biochemical
T2 sequence (P24530 27-442): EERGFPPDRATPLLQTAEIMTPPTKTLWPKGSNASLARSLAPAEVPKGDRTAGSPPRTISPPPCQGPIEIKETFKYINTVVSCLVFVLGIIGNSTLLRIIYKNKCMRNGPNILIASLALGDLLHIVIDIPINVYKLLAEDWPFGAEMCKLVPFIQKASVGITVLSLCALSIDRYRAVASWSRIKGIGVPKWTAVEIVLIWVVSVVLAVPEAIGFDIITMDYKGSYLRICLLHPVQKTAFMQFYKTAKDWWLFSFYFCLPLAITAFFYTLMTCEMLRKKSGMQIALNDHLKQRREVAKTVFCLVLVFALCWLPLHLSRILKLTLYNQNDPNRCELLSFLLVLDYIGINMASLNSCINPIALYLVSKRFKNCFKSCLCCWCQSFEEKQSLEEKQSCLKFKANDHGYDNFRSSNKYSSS
Source text: as §1

ETA/ETB receptor = assay: ETA/ETB selectivity (specificity); assay type: biochemical; settings: ETA versus ETB, rating in words
Source text: as §1

Solubility = assay type: physicochemical
Source text: as §1

Stability in solid state = assay type: physicochemical; settings: 2 h @ l25° C.
Source text: as §1

LogD = assay type: physicochemical; settings: pH 7.4
Source text: as §1

Permeability (PAMPA) = assay type: in vitro ADME; settings: rating in words
Source text: as §1

[1] = tested on: elevated intraocular pressure (IOP); assay: Morrison's rat model of glaucoma (elevated IOP); assay type: in vivo, Brown Norway rats; settings: topical eye drops 100 μg per dose, five days a week, four weeks
Source text: Adult male and female retired breeder Brown Norway rats (approximate age groups of 8 to 11 months) were obtained from Envigo (Indianapolis, Ind.). Baseline IOP measurements and pattern electroretinogram (PERG) amplitudes were collected prior to the surgery for elevation of IOP (to ensure that the IOP and PERG amplitudes were in the expected range of values). IOP was elevated in one eye (left eye) of the rats, while the corresponding right eyes served as contralateral controls. The Morrison method to elevate IOP in rats was carried out by injection of 50 μL of hypertonic saline through the episcleral veins to sclerose the trabecular meshwork. IOP was measured twice a week throughout the entire duration of the experiment. […] After detecting an elevation of IOP for two consecutive days, topical administration of eye drops (20 μL (100 μg) per dose of the tested compounds in the IOP elevated eye) was commenced and carried out for five days a week for a total of four weeks. In the 4th week of treatment, PERG analysis was carried out and rats were sacrificed by an overdose of pentobarbital (Fatal-Plus). Aqueous humor was collected from the rat eyes, frozen and shipped for analysis. Retinal flat mounts were prepared, immunostained with the RGC marker, Brn3a antibody and surviving RGCs were counted in two eccentricities (central and peripheral). For this study, the Morrison's model was used to induce ocular hypertension in adult male retired breeder Brown Norway rats as previously described by Morrison et al., (Morrison J C, Moore […], Gold […], Johnson E C. A rat model of chronic pressure-induced optic nerve damage. Exp Eye Res. 1997; 64(1):85-96). The immunostained retinal flat mounts were obtained to measure the retinal ganglion cell (RGC) counts. To obtain immunostained retinal flat mounts, the animals were euthanized after the treatments and then their eyes were enucleated. The eye cups were fixed overnight at 4° C. in 4% paraformaldehyde (PFA) and retinal flat mounts were prepared for collecting images. The retinal ganglion cell (RGC) counting was conducted using the images of immunostained retinal flat mounts. The images were uploaded to ImageJ, a photo editor designed for biology research (Rasband, 1997-2018) and the labeled retinal ganglion cells were counted manually in two eccentricities (central and peripheral). […] Pattern ERG (PERG) was used to assess the RGC function. […] Briefly, PERG signals were acquired from a DTL-plus electrode placed on the lower part of the corneal surface and the PERG waves were analyzed using the EMWIN software (LKC). The difference between the amplitude of the major positive (P1) and negative (N2) waves were calculated to […] amplitude.

[2] = Pharmacokinetics after topical or oral administration in the rat; assay type: in vivo, Brown Norway rats
Description: After the administrations, the animals (N=2) were euthanized at different time points (e.g. 4 and 8 hours) and tissues were collected for analysis. List of tissues collected include plasma, retina/retinal pigment epithelium (RPE)/choroid, vitreous humor and aqueous humor.

Functional Potency for ETA and ETB Receptors (rating) (ETA receptor): High potency
IC50 (ETB receptor): 3.48 nM
Specificity (rating) (ETA/ETB receptor): Low specificity
solubility (Solubility; aqueous buffer, pH 7, amorphous form, read-out: Solubility at pH 7): 173 µg/mL and 298 µM
solubility (Solubility; ethyl acetate, organic solvent or mixture, read-out: Solubility in Ethyl Acetate): > 10600 µg/mL and > 18400 µM
Solubility in Ethyl Acetate (rating) (Solubility; ethyl acetate, rating in words): Good
solubility (Solubility; pH 2, simulated gastric fluid, read-out: Solubility at pH 2): 92.5 µg/mL and 160 µM
Stability in Solid State (rating) (Stability in solid state): unstable
Stability in Solid State, remaining (Stability in solid state): about 87% remaining/
logD (LogD): 2.3
Permeability (rating) (Permeability (PAMPA)): Mid-High
Detection in retina/RPE/choroid ([2]; oral, 50 mg/kg): detectable
Detection in retina/RPE/choroid, aqueous humor and vitreous humor ([2]; topical eye drop 100 μg, 4 and 8 hours post-administration): detected
SMILES: CCCCCS(=O)(=O)N(CCC)CCN1C[C@H](c2ccc3c(c2)OCO3)[C@@H](C(=O)O)[C@@H]1c1ccc(OC)c(F)c1 [A-182086, (2R,3R,4S)-4-(2H-1,3-benzodioxol-5-yl)-2-(3-fluoro-4-methoxyphenyl)-1-[2-(N-propylpentane-1-sulfonamido)ethyl]pyrrolidine-3-carboxylic acid]
RGC function, pattern electroretinogram (PERG) changes [1]: maintained RGC function
Retinal ganglion cell (RGC) counts, peripheral retina [1]: prevented RGC loss
